Data published in PubChem BioAssay (NCI).
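Assay format: 96-well plates, 48-hour exposure. Here, GI50 denotes the concentration required for 50% inhibition of growth. At the TGI there is no net growth.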

What was measured:
Test in all cases: growth of human tumour cells (NCI), 48 h
[1] = system: SNB-19 CNS
[2] = system: NCI/ADR-RES ovarian
[3] = system: NCI-H522 lung
[4] = system: LOX IMVI melanoma
[5] = system: OVCAR-8 ovarian
[6] = system: 786-0 renal
[7] = system: MCF7 breast
[8] = system: HCT-15 colon
[9] = system: MOLT-4 leukemia
[10] = system: UO-31 renal
[11] = system: UACC-62 melanoma
[12] = system: IGROV1 ovarian
[13] = system: SNB-75 CNS
[14] = system: SN12C renal
[15] = system: NCI-H226 lung
[16] = system: SF-268 CNS
[17] = system: SF-539 CNS
[18] = system: U251 CNS
[19] = system: HL-60(TB) leukemia
[20] = system: SK-OV-3 ovarian
[21] = system: DU-145 prostate
[22] = system: OVCAR-5 ovarian
[23] = system: CCRF-CEM leukemia
[24] = system: NCI-H23 lung
[25] = system: SK-MEL-5 melanoma
[26] = system: BT-549 breast
[27] = system: A498 renal
[28] = system: A549 NSCLC
[29] = system: HCC-2998 colon

With `O=C(NNc1nc2cc(F)cc(F)c2n2cccc12)c1ccncn1` the GI50 [1] was > 30 µM, the TGI [1] was > 30 µM and the GI50 [2] was > 30 µM. The TGI [2] was > 30 µM, the GI50 [3] was > 30 µM and the TGI [3] was > 30 µM. The GI50 [4] was > 30 µM, the TGI [4] was > 30 µM and the GI50 [5] was > 30 µM. The TGI [5] was > 30 µM, the GI50 [6] was > 30 µM and the TGI [6] was > 30 µM. The GI50 [7] was > 30 µM, the TGI [7] was > 30 µM and the GI50 [8] was > 30 µM. The TGI [8] was > 30 µM, the GI50 [9] was > 30 µM and the TGI [9] was > 30 µM. The GI50 [10] was > 30 µM, the TGI [10] was > 30 µM and the GI50 [11] was > 30 µM. The TGI [11] was > 30 µM, the GI50 [12] was > 30 µM and the TGI [12] was > 30 µM. For the same compound, the GI50 [13] was > 30 µM, the TGI [13] was > 30 µM and the GI50 [14] was > 30 µM. The TGI [14] was > 30 µM, the GI50 [15] was > 30 µM and the TGI [15] was > 30 µM. For the same compound, the GI50 [16] was > 30 µM, the TGI [16] was > 30 µM and the GI50 [17] was > 30 µM. The TGI [17] was > 30 µM, the GI50 [18] was > 30 µM and the TGI [18] was > 30 µM. The GI50 [19] was > 30 µM, the TGI [19] was > 30 µM and the GI50 [20] was > 30 µM. The TGI [20] was > 30 µM, the GI50 [21] was > 30 µM and the TGI [21] was > 30 µM. For the same compound, the GI50 [22] was > 30 µM, the TGI [22] was > 30 µM and the GI50 [23] was > 30 µM. For the same compound, the TGI [23] was > 30 µM, the GI50 [24] was > 30 µM and the TGI [24] was > 30 µM. For the same compound, the GI50 [25] was > 30 µM, the TGI [25] was > 30 µM and the GI50 [26] was > 30 µM. For the same compound, the TGI [26] was > 30 µM, the GI50 [27] was > 30 µM and the TGI [27] was > 30 µM. For the same compound, the GI50 [28] was > 30 µM, the TGI [28] was > 30 µM and the GI50 [29] was > 30 µM. The TGI [29] was > 30 µM.
